Values joined by “and” are separate entries in the source; they are usually repeats but may differ in a detail not shown here. Equal entries are not always repeated.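 How tested: cells in 96-well plates exposed to compound for 48 hours at five concentrations. Here, GI50 denotes the concentration required for 50% inhibition of growth. TGI denotes the concentration required for complete inhibition of growth.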 Where only a bound is given, the exact number is not on record here.

Among the test systems are A549 NSCLC; T-47D breast; DU-145 prostate; MDA-MB-231 breast; SR leukemia; HT29 colon; 786-0 renal; MOLT-4 leukemia; RXF 393 renal; SNB-75 CNS.
Common to all, as to assay: DTP human tumour cell line panel, 48 h

As for `Oc1c(CN2CCCCC2)ccc2cccnc12`, the GI50 – broadly, the concentration giving 50% growth inhibition – with A549 NSCLC is 3.72 µM; in the experiment with T-47D breast, 3.63 µM; in the experiment on DU-145 prostate, 5.42 µM; in the experiment with MDA-MB-231 breast, 4.79 µM; with SR leukemia, 3.36 µM; with HT29 colon, 4.88 µM. The GI50 was 2.72 µM with 786-0 renal, 3.97 µM in the experiment with MOLT-4 leukemia, 4.15 µM in the experiment with RXF 393 renal and 5.67 µM in the experiment with SNB-75 CNS. The TGI (as a rule, the concentration giving total growth inhibition) with A549 NSCLC is 28.1 µM; with T-47D breast, 31 µM; in the experiment with DU-145 prostate, 36.4 µM; in the experiment on MDA-MB-231 breast, > 100 µM; with SR leukemia, > 100 µM; with HT29 colon, 19.6 µM. In addition, the concentration for total growth inhibition (TGI) in the experiment with 786-0 renal was > 100 µM; with MOLT-4 leukemia, > 100 µM; in the experiment with RXF 393 renal, 34.8 µM; in the experiment on SNB-75 CNS it was 74.3 µM.

With `COc1ccc2c(c1)/C(=C\c1c(-c3ccccc3)nc3sccn13)C(=O)N2`, the GI50 is 7.2 µM with A549 NSCLC; 8.33 µM with T-47D breast; 3.01 µM in the experiment on DU-145 prostate; 6.92 µM in the experiment with MDA-MB-231 breast; 24 µM in the experiment on SR leukemia; 8.17 µM in the experiment with HT29 colon. For the same compound, the GI50 in the experiment with 786-0 renal is 9.01 µM; with MOLT-4 leukemia it was 12.5 µM; in the experiment on RXF 393 renal, 2.69 µM; in the experiment on SNB-75 CNS it was 7.16 µM. Further, the TGI in the experiment with A549 NSCLC is > 100 µM; with T-47D breast it was 30.9 µM; with DU-145 prostate, 12.6 µM; with MDA-MB-231 breast it was 23.5 µM; in the experiment on SR leukemia it was > 100 µM; in the experiment with HT29 colon, > 40.7 µM. For the same compound, the total growth inhibition concentration (TGI) was 31.2 µM in the experiment on 786-0 renal, > 44.5 µM in the experiment on MOLT-4 leukemia, 21.4 µM in the experiment with RXF 393 renal and 23.5 µM in the experiment on SNB-75 CNS.

For `C[C@]1(c2nc3c(C(N)=O)cccc3[nH]2)CCCN1`, the GI50 with A549 NSCLC was > 65.8 µM and 74.9 µM; with T-47D breast, 68.4 µM and > 100 µM; in the experiment on DU-145 prostate, 74 µM and > 100 µM; with MDA-MB-231 breast, 98.3 µM and > 100 µM; in the experiment with SR leukemia, 19.5 µM and 10.4 µM; with HT29 colon, 61.5 µM and > 100 µM. In addition, the GI50 is > 100 µM in the experiment with 786-0 renal, > 100 µM in the experiment on MOLT-4 leukemia, > 90.3 µM in the experiment on RXF 393 renal and > 100 µM in the experiment on SNB-75 CNS. Moreover, the TGI with A549 NSCLC was > 100 µM; in the experiment with T-47D breast, > 100 µM; with DU-145 prostate it was > 100 µM; in the experiment on MDA-MB-231 breast, > 100 µM; in the experiment on SR leukemia it was > 90 µM and 51.4 µM; in the experiment on HT29 colon, > 100 µM. Further, the TGI in the experiment with 786-0 renal, in the experiment on MOLT-4 leukemia, with RXF 393 renal and with SNB-75 CNS was > 100 µM in each case.

In the case of `CC(C)(C)c1cc[n+](C[n+]2ccc(C(C)(C)C)cc2)cc1`, the concentration for total growth inhibition (TGI) with A549 NSCLC, in the experiment with T-47D breast, in the experiment on DU-145 prostate, with MDA-MB-231 breast, in the experiment on SR leukemia and in the experiment with HT29 colon was > 100 µM in each case. Further, the concentration for total growth inhibition (TGI) in the experiment with 786-0 renal, in the experiment on MOLT-4 leukemia, with RXF 393 renal and with SNB-75 CNS was > 100 µM each time.

Consider `COc1ccc(NC(=O)c2ccc(C(F)(F)F)nc2Nc2ccc(Cl)cc2C)cc1Cl`, for which the GI50 with A549 NSCLC was 5.39 µM; with T-47D breast, 2.58 µM; with DU-145 prostate, 3.75 µM; with MDA-MB-231 breast it was 1.64 µM; with SR leukemia, 1.72 µM; in the experiment on HT29 colon, 3.57 µM. Further, the GI50 is 9.41 µM in the experiment on 786-0 renal, 1.56 µM in the experiment with MOLT-4 leukemia, 12.5 µM with RXF 393 renal and 6.47 µM with SNB-75 CNS. The concentration for total growth inhibition (TGI) in the experiment with A549 NSCLC amounted to 20.6 µM; with T-47D breast, 28.9 µM; with DU-145 prostate, 14.2 µM; in the experiment on MDA-MB-231 breast, 6.82 µM; in the experiment with SR leukemia it was 6.46 µM; in the experiment on HT29 colon, 14 µM. For the same compound, the total growth inhibition concentration (TGI) with 786-0 renal amounted to 23.1 µM; in the experiment on MOLT-4 leukemia, 4.93 µM; in the experiment with RXF 393 renal, 26.8 µM; in the experiment with SNB-75 CNS, 23.9 µM.

For the compound `Oc1cccc2ccc(SSc3ccc4cccc(O)c4n3)nc12`, the TGI in the experiment on A549 NSCLC is > 100 µM; in the experiment on T-47D breast, 38.6 µM; in the experiment on DU-145 prostate it was > 100 µM; in the experiment with MDA-MB-231 breast, 32.3 µM; with SR leukemia it was > 100 µM; in the experiment with HT29 colon, 41.5 µM. For the same compound, the TGI in the experiment with 786-0 renal was 40.4 µM; in the experiment on MOLT-4 leukemia, > 100 µM; in the experiment with RXF 393 renal, 30.8 µM; with SNB-75 CNS, 34.9 µM.

With `C=C[C@@H]1CCC/C=C/[C@@H]2C[C@H](O)C[C@H]2[C@H](O)/C=C/C(=O)O1`, the GI50 is 0.469 µM in the experiment on A549 NSCLC; 1.21 µM in the experiment on T-47D breast; 3.82 µM in the experiment with DU-145 prostate; 0.379 µM in the experiment on MDA-MB-231 breast; 1.64 µM in the experiment with SR leukemia; 0.342 µM in the experiment with HT29 colon. The GI50 in the experiment with 786-0 renal is 0.257 µM; in the experiment with MOLT-4 leukemia, 1.16 µM; in the experiment with RXF 393 renal it was 0.247 µM; in the experiment with SNB-75 CNS, 0.397 µM. The TGI with A549 NSCLC was > 100 µM; in the experiment with T-47D breast, 4.28 µM; with DU-145 prostate, > 100 µM; in the experiment with MDA-MB-231 breast it was 1.11 µM; in the experiment with SR leukemia, > 28 µM; in the experiment with HT29 colon, 1.6 µM. Also, the TGI with 786-0 renal was 0.606 µM; with MOLT-4 leukemia it was > 31.4 µM; in the experiment with RXF 393 renal it was 0.68 µM; with SNB-75 CNS it was > 100 µM.

`COc1cc(/C=C2\C[C@H]3[C@@H]4CC=C5C[C@@H](O)CC[C@]5(C)[C@H]4CC[C@]3(C)[C@H]2O)ccc1OCCN1CCCCC1`: the GI50 in the experiment on A549 NSCLC was 0.815 µM; in the experiment on T-47D breast, 2.05 µM; in the experiment with DU-145 prostate, 1.61 µM; in the experiment on MDA-MB-231 breast, 0.605 µM; with SR leukemia it was 1.11 µM; in the experiment with HT29 colon, 1.54 µM. Moreover, the GI50 was 0.47 µM with 786-0 renal, 3.07 µM in the experiment on MOLT-4 leukemia and 1.04 µM with RXF 393 renal. Also, the TGI is 2.23 µM with A549 NSCLC; 16.2 µM in the experiment on T-47D breast; 4.58 µM with DU-145 prostate; 1.39 µM with MDA-MB-231 breast; > 50 µM with SR leukemia; > 50 µM in the experiment with HT29 colon. Besides, the total growth inhibition concentration (TGI) in the experiment on 786-0 renal is 1.18 µM; in the experiment with MOLT-4 leukemia it was > 50 µM; in the experiment with RXF 393 renal it was 2.31 µM.
